Here are results for 22 compounds from US8461176B2, “Enantiomerically enriched aryloazol-2-yl cyanoethylamino compounds, method of making and method of using thereof” (Merial Limited, priority 2008, dated 2013).

In one test the test system is Haemonchus contortus. The experiment in a line: Method A: screening of activity against Haemonchus contortus L1 larvae in microtitre plate (development to L3 / motility). As to conditions: Haemonchus contortus, 96 h; test concentration 0.0025 ppm; 4 days assessment. From the text:
Method A: Screening Method to Test Activity of Compounds Against Haemonchus contortus.
As usually defined, the inhibition is the percentage by which the read-out fell short of the control. Turning to `CC(C#N)(Cn1nc2c(Cl)cc(Cl)c(Cl)c2n1)NC(=O)c1ccc(OC(F)(F)F)cc1` (single isomer, unassigned; (+)) [Compound 1.096, (+)-N-[1-Cyano-1-methyl-2-(4,5,7-trichloro-2H-benzotriazol-2-yl)-ethyl]-4-trifluoromethoxybenzamide], the inhibition at 0.0025 ppm was no less than 90%. For the compound `CC(C#N)(Cn1cc2c(Cl)cc(Cl)c(Cl)c2n1)NC(=O)c1ccc(C#N)cc1` (stereo not drawn) [Compound 2.063, N-[1-Cyano-1-methyl-2-(4,6,7-trichloro-2H-indazol-2-yl)ethyl]-4-cyanobenzamide], the inhibition at 0.0025 ppm is no less than 90%. In the case of `CC(C#N)(Cn1nc2c(Cl)cc(Cl)c(Cl)c2n1)NC(=O)c1ccc(C(F)(F)F)cc1` (stereo not drawn) [Compound 1.101, N-[1-Cyano-1-methyl-2-(4,5,7-trichloro-2H-benzotriazol-2-yl)-ethyl]-4-trifluoromethylbenzamide], the inhibition at 0.0025 ppm is no less than 90%.

Staying with this test, now noted: Haemonchus contortus, 96 h; test concentration 0.01 ppm; 4 days assessment.
The compound `CC(C#N)(Cn1cc2c(Cl)cc(Cl)c(Cl)c2n1)NC(=O)c1ccc(C(F)(F)F)cc1F` (stereo not drawn) [Compound 2.187, N-[1-Cyano-1-methyl-2-(4,6,7-trichloro-2H-indazol-2-yl)ethyl]-2-fluoro-4-trifluoromethylbenzamide] returned an inhibition at 0.01 ppm of no less than 90%.

In turn, `CC(C#N)(Cn1nc2c(Br)cc(Cl)c(Br)c2n1)NC(=O)c1ccc(C#N)cc1` (stereo not drawn) [Compound 1.098, N-[2-(5-Chloro-4,7-dibromo-2H-benzotriazol-2-yl)-1-cyano-1-methylethyl]-4-cyanobenzamide] returned an inhibition at 0.01 ppm of no less than 90%. The compound `CC(C#N)(Cn1nc2c(Br)cc(Cl)c(Br)c2n1)NC(=O)c1ccc(OC(F)(F)C(F)F)cc1` (stereo not drawn) [Compound 1.099, N-[2-(5-Chloro-4,7-dibromo-2H-benzotriazol-2-yl)-1-cyano-1-methylethyl]-4-(1,1,2,2-tetrafluoroethoxy)benzamide] returned an inhibition at 0.01 ppm of no less than 90%.

Staying with this test, now noted: Haemonchus contortus, 96 h; test concentration 0.04 ppm; 4 days assessment.
Turning to `CC(C#N)(Cn1cc2ncc(Br)cc2n1)NC(=O)c1ccc(C(F)(F)F)cc1` (stereo not drawn) [Compound 3.047, N-[2-(6-Bromo-2H-pyrazolo[4,3-b]pyridin-2-yl)-1-cyano-1-methylethyl]-4-trifluoromethylbenzamide], the inhibition at 0.04 ppm was no less than 90%. With `CC(C#N)(Cn1cc2ncc(Br)cc2n1)NC(=O)c1ccc(I)cc1` (stereo not drawn) [Compound 3.049, N-[2-(6-Bromo-2H-pyrazolo[4,3-b]pyridin-2-yl)-1-cyano-1-methylethyl]-4-iodobenzamide], the inhibition at 0.04 ppm was no less than 90%. `CC(C#N)(Cn1cc2ncc(Br)cc2n1)NC(=O)c1ccc(OC(F)(F)F)cc1F` (stereo not drawn) [Compound 3.056, N-[2-(6-Bromo-2H-pyrazolo[4,3-b]pyridin-2-yl)-1-cyano-1-methylethyl]-2-fluoro-4-trifluoromethoxybenzamide] showed an inhibition at 0.04 ppm of no less than 90%.

Compound `CC(C#N)(Cn1cc2c(Cl)cc(Cl)c(Cl)c2n1)NC(=O)c1ccc(Cl)cc1Cl` (stereo not drawn) [Compound 2.230, 2,4-Dichloro-N-[1-cyano-1-methyl-2-(4,6,7-trichloro-2H-indazol-2-yl)ethyl]benzamide] had an inhibition at 0.04 ppm of no less than 90%.

Still in this test, the particulars now being: Haemonchus contortus, 96 h; test concentration 0.15 ppm; 4 days assessment.
Compound `CC(C#N)(Cn1nc2c(Cl)cc(Cl)c(Cl)c2n1)NC(=O)c1ccc(C(F)(F)F)c(F)c1` (stereo not drawn) [Compound 1.146, N-[1-Cyano-1-methyl-2-(4,5,7-trichloro-2H-benzotriazol-2-yl)-ethyl]-3-fluoro-4-trifluoromethylbenzamide] registered an inhibition at 0.15 ppm of no less than 90%.

`COc1c2ccccc2nn1CC(C)(C#N)NC(=O)c1ccc(OC(F)(F)F)cc1` (stereo not drawn) [Compound 2.016, N-[1-Cyano-2-(3-methoxy-2H-indazol-2-yl)-1-methylethyl]-4-trifluoromethoxybenzamide] displayed an inhibition at 0.15 ppm of no less than 90%.

In turn, `COc1ccc(C(=O)NC(C)(C#N)Cn2cc3c(Cl)cc(Cl)c(Cl)c3n2)cc1F` (stereo not drawn) [Compound 2.227, N-[1-Cyano-1-methyl-2-(4,6,7-trichloro-2H-indazol-2-yl)ethyl]-3-fluoro-4-methoxybenzamide] returned an inhibition at 0.15 ppm of no less than 90%. Same read-out and setting: in the case of `C=Cc1cc(Cl)cc2nn(CC(C)(C#N)NC(=O)c3ccc(OC(F)(F)F)cc3)nc12` (stereo not drawn) [Compound 1.075, N-[2-(6-Chloro-4-vinyl-2H-benzotriazol-2-yl)-1-cyano-1-methylethyl]-4-trifluoromethoxybenzamide] it was no less than 90%; in that of `CC(C#N)(Cn1cc2c(Cl)cc(Cl)c(Cl)c2n1)NC(=O)c1cccc(Br)c1` (stereo not drawn) [Compound 2.229, 3-Bromo-N-[1-cyano-1-methyl-2-(4,6,7-trichloro-2H-indazol-2-yl)ethyl]benzamide], no less than 90%.

Staying with this test, now noted: Haemonchus contortus, 96 h; test concentration 0.3 ppm; 4 days assessment.
`C[C@](C#N)(Cn1cc2ncc(Br)cc2n1)NC(=O)c1ccc(OC(F)(F)F)cc1` [Compound 3.025, (−)-N-[2-(6-Bromo-2H-pyrazolo[4,3-b]pyridin-2-yl)-1-cyano-1-methylethyl]-4-trifluoromethoxybenzamide] had an inhibition at 0.3 ppm of less than 90%. On the same count and under the same terms, in the case of `CC(C#N)(Cn1nc2c(Cl)cc(Cl)c(Cl)c2n1)NC(=O)c1ccc(OC(F)(F)F)cc1` (single isomer, unassigned; (-)) [Compound 1.097, (−)-N-[1-Cyano-1-methyl-2-(4,5,7-trichloro-2H-benzotriazol-2-yl)-ethyl]-4-trifluoromethoxybenzamide] it was less than 90%.

Still in this test, the particulars now being: Haemonchus contortus, 96 h; test concentration 0.6 ppm; 4 days assessment.
In the case of `CC(C#N)(Cn1cc2ccnc(Br)c2n1)NC(=O)c1ccc(OC(F)(F)F)cc1` (stereo not drawn) [Compound 4.005, N-[2-(7-Bromo-2H-pyrazolo[3,4-c]pyridin-2-yl)-1-cyano-1-methylethyl]-4-trifluoromethoxybenzamide], the inhibition at 0.6 ppm is no less than 90%. `CC(C#N)(Cn1cc2nc(Br)c(Br)cc2n1)NC(=O)c1ccc(OC(F)(F)F)cc1` (stereo not drawn) [Compound 3.042, N-[1-Cyano-2-(5,6-dibromo-2H-pyrazolo[4,3-b]pyridin-2-yl)-1-methylethyl]-4-trifluoromethoxybenzamide] registered an inhibition at 0.6 ppm of no less than 90%. Take `CCCCCCc1ccc(C(=O)NC(C)(C#N)Cn2cc3ncc(Br)cc3n2)cc1` (stereo not drawn) [Compound 3.051, N-[2-(6-Bromo-2H-pyrazolo[4,3-b]pyridin-2-yl)-1-cyano-1-methylethyl]-4-hexylbenzamide]: the inhibition at 0.6 ppm is no less than 90%. Same read-out and setting: in the case of `CC(C#N)(Cn1nc2cc(Cl)c(Cl)cc2n1)NC(=O)c1ccc(OC(F)(F)F)cc1` (stereo not drawn) [Compound 1.010, N-[1-Cyano-2-(5,6-dichloro-2H-benzotriazol-2-yl)-1-methylethyl]-4-trifluoromethoxybenzamide] it was no less than 90%.

The subject of a further test is Haemonchus contortus. The experiment in a line: Method B: activity against Haemonchus contortus in vivo in Mongolian gerbil. Further details: species or system Mongolian gerbil (Meriones unguiculatus). Conditions: po, 72 h, oral gavage, dose 0.3 mg/kg, read-out: reduction in nematode infection. As for the experimental part: Method B: Screening Method to Test Activity of Compounds Against Haemonchus contortus In Vivo in Mongolian Gerbil (Meriones unguiculatus).
Mongolian gerbils, at least five weeks old, were immunosuppressed and artificially infected with ca. 1000 ensheathed Haemonchus contortus third instar larvae. Six days after infection, the Mongolian gerbils were treated by oral gavage with the test compounds, dissolved in a mixture of 2 parts DMSO and 1 part polyethylene glycol (PEG400), at doses of 100 mg/kg and dissolved in pure polyethylene glycol (PEG400) at doses of 10 and 1 mg/kg. Mongolian gerbils treated only with the placebo (2 parts DMSO and 1 part PEG400 or pure PEG400) served as controls. On day 9 (3 days after treatment) the jirds were euthanized and necropsied for recovery of parasites from the stomach. Efficacy was calculated as the average % reduction in the number of worms in each test group compared with the average number of worms from the control group. […] Compound numbers 1.001, 1.008, 1.012, 1.013 and 1.014 provided at least 95% reduction in nematode in Mongolian gerbils treated by oral gavage with test article at a dose of 100 mg/kg. Compound numbers 1.012, 1.033, 1.064, 2.008, 2.037, 2.038, 2.040, 2.041, 3.001 provided at least 95% reduction in nematode infection at a dose of 10 mg/kg. Compound numbers 1.094, 1.096, 2.048, 3.001, 3.007 and 3.009, provided at least 95% reduction in nematode infection at a dose of 1 mg/kg. Compound numbers 3.006, 3.017 and 3.019 provided at least 95% reduction in nematode infection at a dose of 0.5 mg/kg. Compound numbers 3.005, 3.011 and 3.012 provided at least 95% reduction in nematode infection at a dose of 0.3 mg/kg. The eutomer compound number 3.024 provided at least 95% reduction in nematode infection at a dose of 0.1 mg/kg.
For the compound `C[C@](C#N)(Cn1cc2ncc(Br)cc2n1)NC(=O)c1ccc(OC(F)(F)F)cc1` [Compound 3.025, (−)-N-[2-(6-Bromo-2H-pyrazolo[4,3-b]pyridin-2-yl)-1-cyano-1-methylethyl]-4-trifluoromethoxybenzamide], the inhibition in vivo at 0.3 mg/kg was less than 95%. On to `CC(C#N)(Cn1cc2ncc(Cl)cc2n1)NC(=O)c1ccc(OC(F)(F)F)cc1` (stereo not drawn) [Compound 3.005, N-[2-(6-Chloro-2H-pyrazolo[4,3-b]pyridin-2-yl)-1-cyano-1-methylethyl]-4-trifluoromethoxybenzamide], for which the inhibition in vivo at 0.3 mg/kg is no less than 95%.

The same test, now with this note: po, 72 h, oral gavage, dose 1 mg/kg, necropsy 3 days after treatment, read-out: reduction in nematode infection.
For the compound `CC(C#N)(Cn1nc2c(Cl)cc(Cl)c(Cl)c2n1)NC(=O)c1ccc(OC(F)(F)F)cc1` (single isomer, unassigned; (+)) [Compound 1.096, (+)-N-[1-Cyano-1-methyl-2-(4,5,7-trichloro-2H-benzotriazol-2-yl)-ethyl]-4-trifluoromethoxybenzamide], the inhibition in vivo at 1 mg/kg was no less than 95%.
